From ChEMBL document CHEMBL1125006, “DNA-directed alkylating agents. 2. Synthesis and biological activity of platinum complexes linked to 9-anilinoacridine” (J Med Chem, 1990) come the findings set out here.

Assay [1] relates to P388. As to the kind of experiment: In vitro inhibition of P388 (murine leukemia) cell growth. The assay is classed as functional, cell-based, Mus musculus.
Assay [2] concerns P388. The assay is described as follows: In vitro inhibition of Pt resistant P388 (murine leukemia) cell growth. The class given is functional, cell-based, Mus musculus.
For assay [3], the system named is P388. As to the kind of experiment: Optimal i.p. dose in P388 (murine leukemia) inoculated mice. The assay is classed as functional, Mus musculus.
Assay [4] relates to P388. As to the kind of experiment: Increase in mean survival of P388 (murine leukemia) inoculated mice; no effect. The assay is classed as functional. The following applies: Mus musculus.
Assay [5] concerns P388. The assay is described as follows: Increase in mean survival of P388 (murine leukemia) inoculated mice following optimal dose. The assay is classed as functional, organism-based. The settings on record: Mus musculus.

Activity calls are given as the source filed them. The calls are words filed in the database; no cut-off is given here.

In general, IC50 refers to the concentration that inhibits the measured activity by half. Low values mean inhibition by little substance, high ones a need for much substance. Consider “9-[4-(5-Amino-4-aminomethyl-pentyl)-phenylamino]-5-methoxy-acridine-4-carboxylic acid (2-dimethylamino-ethyl)-amide (2HCl) [listing 1 of 2 here]”, for which the IC50 in the assay with P388 [1] (p388) came out at 1.6 µM; in the assay with P388 [2] (p388), 1 µM.

What is called ILS is the gain in survival time of treated over control animals, in per cent. Turning to `NCC(CN)Cc1ccc(Nc2c3ccccc3nc3ccccc23)cc1`, the OD in the assay on P388 [3] is 45 mg/kg. Further, the half-inhibitory concentration (IC50) in the assay on P388 [1] (Mus musculus, P388) is 7.2 µM; in the assay with P388 [2] (Mus musculus, P388), 0.7 µM. Further, the ILS result with P388 [4] is “inactive”.

Turning to “9-[4-(5-Amino-4-aminomethyl-pentyl)-phenylamino]-5-methoxy-acridine-4-carboxylic acid (2-dimethylamino-ethyl)-amide (2HCl) [listing 2 of 2 here]”, the OD in the assay on P388 [3] (Mus musculus) was determined as 45 mg/kg. Moreover, the increase in life span (ILS) with P388 [5] was determined as 28%.

With `NCCNCCCCCc1ccc(Nc2c3ccccc3nc3ccccc23)cc1`, in the assay on P388 [3], the OD worked out at 20 mg/kg. Also, the concentration for half-maximal inhibition (IC50) in the assay on P388 [1] (Mus musculus, P388) turned out to be 7.3 µM; in the assay on P388 [2] (Mus musculus, P388) it was 3 µM. The ILS entry in the assay on P388 [4] is “inactive”.

As to `NCC(CN)CCCCc1ccc(Nc2c3ccccc3nc3ccccc23)cc1`, the OD in the assay on P388 [3] was 20 mg/kg. The IC50 in the assay on P388 [1] (Mus musculus, P388) worked out at 0.72 µM; with P388 [2] (Mus musculus, P388), 0.68 µM. Moreover, the ILS entry in the assay with P388 [4] was “inactive”.

`NCC(CN)CCCCCc1ccc(Nc2c3ccccc3nc3ccccc23)cc1` registered an OD with P388 [3] of 13.3 mg/kg. Moreover, the IC50 was found to be 0.72 µM with P388 [1] (Mus musculus, P388) and 0.69 µM with P388 [2] (Mus musculus, P388). Besides, the ILS entry with P388 [4] was “inactive”.

In the case of `NCCNCCCc1ccc(Nc2c3ccccc3nc3ccccc23)cc1`, the OD with P388 [3] is 20 mg/kg. In addition, the IC50 with P388 [1] (Mus musculus, P388) amounted to 3.7 µM; with P388 [2] (Mus musculus, P388), 0.7 µM. The ILS entry in the assay with P388 [4] was “inactive”.

For “N,1-{2-[4-(Acridin-9-ylamino)-phenyl]-ethyl}-ethane-1,2-diammino-dichloroplatinum (II) [listing 1 of 2 here]”, the IC50 with P388 [1] (p388) was determined as 2.9 µM; in the assay with P388 [2] (p388), 2.4 µM.

On to “N,1-{2-[4-(Acridin-9-ylamino)-phenyl]-ethyl}-ethane-1,2-diammino-dichloroplatinum (II) [listing 2 of 2 here]”, for which, in the assay with P388 [3] (Mus musculus), the OD is 13.3 mg/kg. Besides, the ILS result in the assay with P388 [4] was “inactive”.

The compound CISPLATIN [listing 1 of 2 here] came in with an OD in the assay with P388 [3] (Mus musculus) of 5.3 mg/kg. Further, the increase in lifespan (ILS) with P388 [5] amounted to 120%.

For the compound `NCC(CN)CCc1ccc(Nc2c3ccccc3nc3ccccc23)cc1`, the OD with P388 [3] was 30 mg/kg. In addition, the IC50 in the assay on P388 [1] (Mus musculus, P388) is 0.31 µM; in the assay with P388 [2] (Mus musculus, P388) it was 0.63 µM. Also, the ILS entry with P388 [4] was “inactive”.

On to CISPLATIN [listing 2 of 2 here], for which the IC50 with P388 [1] (p388) was 1.2 µM; with P388 [2] (p388), 5.5 µM.

As for “Dichloro(1,3-propanediamine)platinum (II) [listing 1 of 2 here]”, the OD in the assay with P388 [3] (Mus musculus) is 8.9 mg/kg. In addition, the ILS in the assay with P388 [5] was found to be 31%.

With `NCCNCCc1ccc(Nc2c3ccccc3nc3ccccc23)cc1`, in the assay on P388 [3], the OD worked out at 45 mg/kg. For the same compound, the IC50 turned out to be 12.5 µM in the assay with P388 [1] (Mus musculus, P388) and 45 µM with P388 [2] (Mus musculus, P388). For the same compound, the ILS entry in the assay with P388 [4] was “inactive”.

As to “Dichloro(1,3-propanediamine)platinum (II) [listing 2 of 2 here]”, the IC50 was found to be 0.12 µM in the assay on P388 [1] (p388) and 0.38 µM in the assay on P388 [2] (p388).

`NCCNCCCCc1ccc(Nc2c3ccccc3nc3ccccc23)cc1` gave an OD with P388 [3] of 65 mg/kg. Also, the IC50 with P388 [1] (Mus musculus, P388) was found to be 7.8 µM; in the assay on P388 [2] (Mus musculus, P388), 1.3 µM. Further, in the assay on P388 [4], the ILS entry was “inactive”.

Turning to “DICHLORO(ETHYLENEDIAMINE) PLATINUM (II) [listing 1 of 2 here]”, the IC50 with P388 [1] (p388) amounted to 0.3 µM; with P388 [2] (p388) it was 1.03 µM.

Compound `NCC(CN)CCCc1ccc(Nc2c3ccccc3nc3ccccc23)cc1` showed an OD in the assay on P388 [3] of 30 mg/kg. Moreover, the IC50 in the assay with P388 [1] (Mus musculus, P388) is 0.12 µM; in the assay with P388 [2] (Mus musculus, P388), 0.12 µM. Besides, the ILS entry with P388 [4] was “inactive”.

As to “2-{3-[4-(Acridin-9-ylamino)-phenyl]-propyl}-propane-1,3-diammino-dichloroplatinum (II) (HCl) [listing 1 of 2 here]”, in the assay on P388 [3] (Mus musculus), the OD worked out at 20 mg/kg. The ILS result with P388 [4] is “inactive”.

“DICHLORO(ETHYLENEDIAMINE) PLATINUM (II) [listing 2 of 2 here]”: in the assay with P388 [3] (Mus musculus), the OD came to 13.3 mg/kg. Also, the increase in lifespan (ILS) in the assay on P388 [5] was 70%.

Consider “2-{4-[4-(Acridin-9-ylamino)-phenyl]-butyl}-propane-1,3-diammino-dichloroplatinum (II) (HCl) [listing 1 of 2 here]”, for which the OD in the assay with P388 [3] (Mus musculus) is 30 mg/kg. In addition, in the assay with P388 [4], the ILS entry was “inactive”.

The compound `COc1cccc2c(Nc3ccc(CCCC(CN)CN)cc3)c3cccc(C(=O)NCCN(C)C)c3nc12` had an OD in the assay on P388 [3] of 30 mg/kg. Also, the ILS result in the assay with P388 [4] was “inactive”.

Turning to “2-{3-[4-(Acridin-9-ylamino)-phenyl]-propyl}-propane-1,3-diammino-dichloroplatinum (II) (HCl) [listing 2 of 2 here]”, the results for the IC50 in the assay on P388 [1] (p388) and in the assay on P388 [2] (p388) were 2.9 µM and 1.9 µM, respectively.

As to “2-{4-[4-(Acridin-9-ylamino)-phenyl]-butyl}-propane-1,3-diammino-dichloroplatinum (II) (HCl) [listing 2 of 2 here]”, the IC50 in the assay on P388 [1] (p388) was determined as 7.2 µM; in the assay on P388 [2] (p388), 0.9 µM.
